{"source": "paper PMC6707405", "about": "“Screening Bioactive Compounds of Siraitia grosvenorii by Immobilized β2-Adrenergic Receptor Chromatography and Druggability Evaluation” (Frontiers in Pharmacology, 2019)", "key": {"[1]": {"target": "immobilized β2-AR (Homo sapiens, UniProt P07550)", "sequence (P07550 whole entry)": "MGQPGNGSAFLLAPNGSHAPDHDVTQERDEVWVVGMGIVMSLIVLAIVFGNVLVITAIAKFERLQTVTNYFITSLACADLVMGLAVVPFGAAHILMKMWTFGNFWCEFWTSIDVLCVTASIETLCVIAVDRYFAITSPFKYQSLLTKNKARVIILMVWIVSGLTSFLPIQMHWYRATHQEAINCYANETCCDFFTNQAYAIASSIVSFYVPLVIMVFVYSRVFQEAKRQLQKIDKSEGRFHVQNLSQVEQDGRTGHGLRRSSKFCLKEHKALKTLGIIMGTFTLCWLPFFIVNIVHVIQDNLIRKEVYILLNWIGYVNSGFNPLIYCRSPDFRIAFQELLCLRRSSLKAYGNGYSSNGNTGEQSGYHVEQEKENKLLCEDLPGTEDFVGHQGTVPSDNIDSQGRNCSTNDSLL"}, "[2]": {"tested_on": "mice trachea", "parameters": "method as in Liu et al., 2007", "settings": "ref Liu et al., 2007; cited from earlier work"}, "[3]": {"settings": "cited from earlier work"}, "[4]": {"test": "Stability of mogroside V in rat plasma (QC samples, HPLC-MS/MS)", "format": "in vitro ADME", "settings": "for Short term Stability (%): room temperature 14 h; for Long term Stability (%): −20°C 1 month; for Freeze–thaw Stability (%): three freeze (−20°C) and thaw cycles", "description": "The stability of mogroside V in plasma was evaluated at three QC levels in six replicates under varieties of storing and processing conditions. The results of the peak area of QC samples were compared with those from freshly prepared standard samples. The QC samples with recoveries of 85–115% were defined as having good stability under the desired conditions. Short-term stability was assessed after QC samples were saved at room temperature for 14 h. Subsequently, freeze–thaw stability was assessed after three freeze (−20°C) and thaw (room temperature) cycles of QC samples. Long-term stability was examined after QC samples were saved at −20°C for 1 month."}, "[5]": {"tested_on": "ileum and trachea", "parameters": "method as in Liu et al., 2007", "settings": "histamine-induced; ref Liu et al., 2007; cited from earlier work"}, "[6]": {"tested_on": "rat tracheal smooth muscle pre-contracted by high K+ solution", "test": "Relaxation of isolated rat tracheal strips pre-contracted by high K+ solution, with or without ICI 118551", "format": "cell-based", "settings": "0.1 μM to 1.0 mM, high K+ (60 mM) pre-contracted", "description": "The potential β2-AR-mediating relaxant mechanisms of the compound were also evaluated in the absence and presence of a specific inhibitor. This was performed with the scarification of rats weighing 250–300 g by exsanguination from the abdominal aorta. We collected the tracheal tissues between the larynx and the lungs and immediately immersed them in cold oxygenated Krebs solution (118 mM NaCl, 4.8 mM KCl, 2.5 mM CaCl2, 1.2 mM MgSO4, 25 mM NaHCO3, 1.2 mM KH2PO4, and 9.8 mM glucose; pH 7.4). After the removal of adhesive tissues, we spirally isolated the tracheal segment with three cartilage rings to assay the tracheal strip reactivity. Such strips were mounted onto two L-shaped stainless-steel holders connected with a force–displacement transducer. The isometric tension was determined in a tissue bath by a PowerLab data acquisition system.\nWe aerated the pre-warmed Krebs solution (37°C) with a gas mixture of 95% O2 and 5% CO2. At initial tests, the tracheal strips with tensions of 1.0-g mass were equilibrated for 60 min. The resulting strips were stimulated with high-potassium (K^+) solution (63 mM NaCl, 60 mM KCl, 2.5 mM CaCl2, 1.2 mM MgSO4, 25 mM NaHCO3, 1.2 mM KH2PO4, and 9.8 mM glucose; pH 7.4) to evoke a contractile response in the presence or absence of ICI 118551 (10 μM). […]"}, "[7]": {"settings": "dose 200 mg/kg, ref Qin et al. (2006); cited from earlier work"}, "[8]": {"tested_on": "cough of mice", "settings": "ref Liu et al., 2007; cited from earlier work"}, "[9]": {"test": "Pharmacokinetic study in rats after oral administration (HPLC-MS/MS)", "format": "in vivo, Sprague–Dawley (SD) rats", "settings": "mogroside V 200 mg/kg or LHG extract 12.5 ml/kg", "description": "Male Sprague–Dawley (SD) rats (240 ± 20 g) were purchased from the Experimental Animal Center of Xi’an Jiaotong University (Xi’an, China). The animals were maintained in a room under controlled temperature (24 ± 1°C) and humidity (50–70%) with 12-h light/dark cycle. The rats were fed with standard laboratory food and acclimatized to the environment for a week before the experiment. All animals were treated in accordance with the Guide for the Care and Use of Laboratory Animals under the approval of the Animal Experimentation Ethics Committee at Northwest University.\nAll the plasma samples were analyzed on an Inertsil ODS-3-C18 column (5 μm, 4.6 mm × 150 mm). The mobile phase for quantitative determination of mogroside V in rat plasma consisted of 29% acetonitrile/0.2% (v/v) formic acid at a flow rate of 0.6 ml/min. The injection volume was 20 μl under a detection wavelength of 203 nm.\nThe optimized mass conditions include the following: capillary voltage of 3,500 V, drying gas of 8 L/min at 350°C, nebulizer pressure of 40 psi at 350°C, and ion scan range of 100–2,000 amu. Under these conditions, multi-reaction monitoring (MRM) mode was carried out to specifically and sensitively detect the mogroside V. The mass transitions were m/z 1,285.6 → 1,123.6 for mogroside V and m/z 931.3 → 637.5 for IS (notoginsenoside R1).\nAn aliquot of 10 μl of IS working solution was added into an aliquot of 90 μl of plasma samples. Vortexing the mixture for 2.0 min, we centrifuged the plasma for 10 min with a speed of 12,000 rpm at a temperature of 4°C. The supernatant was collected and transferred to another 0.5-ml centrifuge tube and then blow dried with nitrogen. We applied 200 μl of methanol to redissolve it, which was used for analysis.\nEighteen rats were randomly divided into three groups of six for each group, including blank control, mogroside V, and LHG groups. The blank group was orally administered with normal saline. The other two groups were administered with mogroside V at a dose of 200 mg/kg and LHG aqueous extraction at a dose of 12.5 ml/kg (equivalent to 200 mg/kg mogroside V). Blood samples were collected in heparin sodium vacutainers at post-dose 5, 15, 30, 45, 60, 90, 120, 240, 360, 480, and 720 min. The plasma was pre-treated by centrifugation and frozen at −80°C until further analysis. The pharmacokinetic parameters including the area under curve (AUC0–720, and AUC0–∞), the maximum plasma concentration (Cmax), the time to achieve maximum plasma concentration (T max), and the elimination half-life (t 1/2z) were calculated by Drug and Statistics 3.0.0 software (DAS, T. C. M., Shanghai, China). All data were recorded as the mean ± standard deviation (SD), and the 95% confidence interval was also estimated when necessary."}, "[10]": {"settings": "male, Sprague-Dawley, rat, in vivo, mogroside V in plasma"}}, "note": "Read-outs that look alike come from different tables or passages of the source."}
{"smiles": "COc1cc2nc(N3CCN(C(=O)C4CCCO4)CC3)nc(N)c2cc1OC", "note": "(stereo not drawn) [terazosin]", "values": [{"measurement": "retention time on immobilized β2-AR column", "setting": "[1]; mobile phase ammonium acetate (5 mM, pH = 7.4), each injected three times", "value": 1.0, "unit": "min"}]}
{"smiles": "C[C@H](CC[C@@H](O[C@@H]1O[C@H](CO[C@@H]2O[C@H](CO)[C@@H](O)[C@H](O)[C@H]2O)[C@@H](O)[C@H](O)[C@H]1O[C@@H]1O[C@H](CO)[C@@H](O)[C@H](O)[C@H]1O)C(C)(C)O)[C@H]1CC[C@@]2(C)[C@@H]3CC=C4[C@@H](CC[C@H](O[C@@H]5O[C@H](CO[C@@H]6O[C@H](CO)[C@@H](O)[C@H](O)[C@H]6O)[C@@H](O)[C@H](O)[C@H]5O)C4(C)C)[C@]3(C)[C@H](O)C[C@]12C", "note": "[Mogroside V]", "values": [{"measurement": "phenol red excretion of mice trachea", "setting": "[2]", "value": "effective for extending"}, {"measurement": "detection in rat plasma", "setting": "[3]; oral administration, dose increased to 5 mg/kg, ref Luo, 2017", "value": "disappears"}, {"measurement": "detection in rat plasma", "setting": "[3]; tail intravenous injection (1.12 or 2.0 mg/kg) and intraperitoneal administration (1.12 mg/kg), ref Zhou et al., 2018", "value": "detectable"}, {"measurement": "Short term Stability (%)", "setting": "[4]; rat plasma, 30 ng/ml added", "value": 94.8, "unit": "%"}, {"measurement": "Long term Stability (%)", "setting": "[4]; rat plasma, 30 ng/ml added", "value": 94.4, "unit": "%"}, {"measurement": "Short term Stability (%)", "setting": "[4]; rat plasma, 500 ng/ml added", "value": 94.8, "unit": "%"}, {"measurement": "Freeze–thaw Stability (%)", "setting": "[4]; rat plasma, 500 ng/ml added", "value": 95.4, "unit": "%"}, {"measurement": "Long term Stability (%)", "setting": "[4]; rat plasma, 500 ng/ml added", "value": 93.8, "unit": "%"}, {"measurement": "Short term Stability (%)", "setting": "[4]; rat plasma, 5,000 ng/ml added", "value": 93.2, "unit": "%"}, {"measurement": "Freeze–thaw Stability (%)", "setting": "[4]; rat plasma, 5,000 ng/ml added", "value": 96.6, "unit": "%"}, {"measurement": "Long term Stability (%)", "setting": "[4]; rat plasma, 5,000 ng/ml added", "value": 92.2, "unit": "%"}, {"measurement": "spasmodic contraction of the ileum and trachea caused by histamine", "setting": "[5]", "value": "obvious capability to antagonize"}, {"measurement": "retention time of LHG extract peak on immobilized β2-AR column, identified as mogroside V", "setting": "[1]; ammonium acetate buffer (5 mM, pH = 7.4), 0.2 ml/min, 203 nm, void time 0.7 min", "value": 4.3, "unit": "min"}, {"measurement": "relaxation of tracheal strips", "setting": "[6]; absence of ICI 118551", "value": "concentration-dependent manner"}, {"measurement": "relaxation of tracheal strips", "setting": "[6]; presence of ICI 118551 (10 μM)", "value": "disappeared"}, {"measurement": "toxicity after oral administration", "setting": "[7]", "value": "nontoxic"}, {"measurement": "cough times of mice", "setting": "[8]", "value": "reducing the cough times"}, {"measurement": "incubation period for cough of mice", "setting": "[8]", "value": "prolonged"}, {"measurement": "Cmax", "setting": "[9]; [10]", "value": 1330, "unit": "ng/mL"}, {"measurement": "Tmax", "setting": "[9]; [10]", "value": 0.75, "unit": "h"}, {"measurement": "half-life", "setting": "[9]; male, Sprague-Dawley, rat, in vivo, mogroside V in plasma, read-out: t1/2z", "value": "2.31 ± 0.22", "unit": "h"}, {"measurement": "peak plasma concentration", "setting": "[9]", "value": "1,330.6 ± 132.2 ng/ml"}]}
{"smiles": "O=N[O-].[Na+]", "note": "[sodium nitrite, Sodium nitrite]", "values": [{"measurement": "retention time on immobilized β2-AR column", "setting": "[1]", "value": 0.7, "unit": "min"}]}
